Like-named read-outs stand apart in the source and are kept apart here.
Legend:
[1] = system: HCT116 cells; assay: MTT cell viability HCT116; format: cell-based, Human; settings: for IC50: read-out: IC50 values on cancer cell lines
Experimental: (§1) Human HeLa, A549, HepG2, SH-SY5Y, MCF7 and AGS cells were cultured in DMEM containing 10% FBS, respectively. HCT116 cells were cultured in McCoy’s 5A medium (Procell, Wuhan, China) containing 10% FBS. The cells were cultured in medium containing 100 IU/mL penicillin, 100 µg/mL streptomycin (1% antibiotics) and 25 nM selenite at 37 °C in a humidified incubator with 5% CO2 (Thermo Fisher Scientific, Waltham, MA, USA).
(§2) MTT assay was used to detect cell viability. In brief, cells were seeded in 96-well plates with 5000 cells per well and allowed to stick overnight. […] After treatment, the cell medium was carefully removed from the cultured cells and added with 100 µL fresh FBS-free medium containing 0.5 mg/mL MTT. The medium was incubated in an incubator for 4 h. Then, the medium was removed, and the formazan crystals formed were dissolved in 100 µL DMSO. The absorbance was measured at 570 nm, and 630 nm was set as the reference. The experiments were repeated four times.

[2] = system: AGS cells; assay: MTT cell viability AGS; format: cell-based, Human
Experimental: as §1, §2

[3] = system: TrxR1; parameters: method as in PMID 21262347; settings: cited from earlier work
[4] = target: T1, TrxR1 (Rattus norvegicus, UniProt O89049); assay: NADPH oxidase activity of TrxR1 (juglone reduction); format: biochemical; settings: 500 µM, 30 min in dark, juglone as substrate
T1 sequence (O89049 1-499): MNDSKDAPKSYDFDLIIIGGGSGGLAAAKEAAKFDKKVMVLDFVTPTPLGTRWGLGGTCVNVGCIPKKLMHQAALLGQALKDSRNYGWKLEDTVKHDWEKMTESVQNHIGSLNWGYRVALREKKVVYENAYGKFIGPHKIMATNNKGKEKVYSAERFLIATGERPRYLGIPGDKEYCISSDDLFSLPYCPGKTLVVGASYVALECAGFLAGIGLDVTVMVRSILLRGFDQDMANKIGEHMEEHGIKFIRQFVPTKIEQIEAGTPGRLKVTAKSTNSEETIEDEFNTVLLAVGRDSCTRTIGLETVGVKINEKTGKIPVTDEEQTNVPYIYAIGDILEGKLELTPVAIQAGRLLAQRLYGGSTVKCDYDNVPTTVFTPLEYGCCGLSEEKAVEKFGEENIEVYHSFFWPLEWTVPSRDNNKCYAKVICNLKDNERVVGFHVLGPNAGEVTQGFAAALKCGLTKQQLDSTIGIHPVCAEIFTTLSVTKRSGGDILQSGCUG
Experimental: NADPH oxidase activity of TrxR1 was measured by juglone reduction method. The final reaction mixture consisted of 30 nM TrxR1, 30 µM juglone (in DMSO) and 200 µM NADPH.

[5] = target: T2, wild type TrxR1 (Rattus norvegicus, UniProt O89049)
T2 sequence (O89049 1-499): T1 sequence (O89049 1-499)
Experimental: (§3) All food colorants were dissolved in DMSO to prepare a stock solution. […] 5,5′-dithiobis-2-nitrobenzoic acid (DTNB), 3-(4,5)-dimethylthiahiazo (-z-y1)-3,5-di-phenytetrazoliumromide (MTT) and ROS probe DCFH-DA were purchased from Sigma-Aldrich (St Louis, MI, USA). A 50 mM Tris-HCl containing 2 mM EDTA (pH 7.5) was used in all protein-based experiments, if not stated otherwise.
(§4) The enzymatic activities of TrxR1 and its various mutants were determined in parallel with DTNB and 9,10-panathrenequinone (9,10 PQ) as substrates [17]. In DTNB reduction assay, the working reaction mixtures contained 10 nM TrxR1, 2.5 mM DTNB and 300 µM NADPH in 50 mM Tris-HCl and 2 mM EDTA, pH 7.5. […] In the 9,10 PQ reduction assay, the working reaction mixtures contained 30 nM TrxR1, 30 µM 9,10 PQ and 200 µM NADPH, followed by NADPH oxidation at 340 nm for 20 min at room temperature, according to the linear region of the decrease curves (assuming ƐNADPH, 340 nm = 6200 M^−1 cm^−1).

[6] = target: T2, wild type TrxR1; assay: TrxR1 DTNB reduction assay
Experimental: as §3, §4

[7] = target: T3, cellular TrxR in HeLa cells (Homo sapiens, UniProt Q16881); assay: Cellular TrxR activity, end-point Trx-coupled insulin assay; format: cell-based; settings: HeLa cells vs untreated controls
T3 construct: endogenous in cells; host or cells: HeLa
T3 sequence (Q16881 1-499 isoform Q16881-5): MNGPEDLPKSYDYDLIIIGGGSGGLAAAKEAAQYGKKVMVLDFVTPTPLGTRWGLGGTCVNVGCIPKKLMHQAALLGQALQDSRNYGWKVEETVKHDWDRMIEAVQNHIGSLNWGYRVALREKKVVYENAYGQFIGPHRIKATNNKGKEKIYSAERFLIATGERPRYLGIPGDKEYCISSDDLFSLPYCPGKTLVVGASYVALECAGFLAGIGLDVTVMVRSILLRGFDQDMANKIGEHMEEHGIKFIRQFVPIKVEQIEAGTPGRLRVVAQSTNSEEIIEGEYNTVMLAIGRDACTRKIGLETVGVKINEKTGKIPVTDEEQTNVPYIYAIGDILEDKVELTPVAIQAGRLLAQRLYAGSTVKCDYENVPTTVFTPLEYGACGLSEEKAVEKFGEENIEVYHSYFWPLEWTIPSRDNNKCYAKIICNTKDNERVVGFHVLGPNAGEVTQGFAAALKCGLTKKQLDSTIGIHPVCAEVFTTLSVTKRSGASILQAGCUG
Experimental: The cells were then collected and washed twice with ice-cold PBS. The total cell proteins were extracted with the RIPA buffer on ice for 30 min. The TrxR activities in the cell lysates were measured by the end-point Trx-coupled insulin assay and the protein concentration was determined by BCA protein assay kit (Sangon, Shanghai, China), using bovine serum albumin (BSA) as protein standard.

[8] = system: HeLa cells; assay: ROS generation with DCFH-DA; format: cell-based, Human; settings: 12 h, up to 50 µM
Experimental: After removing the medium, 10 µM DCFH-DA was added and incubated at 37 °C in darkness for 30 min. The cells were then observed and photographed using a Leica inverted fluorescence microscopy (Leica, Germany).

[9] = system: A549 cells; assay: MTT cell viability A549; format: cell-based, Human; settings: read-out: IC50 values on cancer cell lines
Experimental: as §1, §2

[10] = system: HeLa cells; assay: MTT cell viability HeLa; format: cell-based, Human; settings: read-out: IC50 values on cancer cell lines
Experimental: as §1, §2

[11] = system: HepG2 cells; assay: MTT cell viability HepG2; format: cell-based, Human; settings: read-out: IC50 values on cancer cell lines
Experimental: as §1, §2

[12] = system: MCF7 cells; assay: MTT cell viability MCF7; format: cell-based, Human; settings: read-out: IC50 values on cancer cell lines
Experimental: as §1, §2

[13] = system: SH-SY5Y cells; assay: MTT cell viability SH-SY5Y; format: cell-based, Human; settings: 48 h, read-out: IC50 values on cancer cell lines
Experimental: as §1, §2

CC(=O)N[C@@H](CS)C(=O)O [NAC, N-acetyl-L-cysteine, reference compound]
Effect of co-treatment on chlorophyllin cytotoxicity ([1]; HCT116, 100 µM or 500 µM NAC, 24 h co-treatment): protect cell from chlorophyllin
Effect of co-treatment on chlorophyllin cytotoxicity ([2]; 100 µM or 500 µM NAC, 24 h co-treatment): protect cell from chlorophyllin

C=CC1=C(C)c2cc3[nH]c(cc4nc(cc5[nH]c(cc1n2)c(C)c5CCC(=O)O)C(CCC(=O)O)=C4C)c(C)c3C=C [PpIX]
Kinact in TrxR1 mediated Trx-coupled insulin reduction [3]: 5 M⁻¹ s⁻¹
Ki ([3]; read-out: apparent Ki on TrxR1's Trx reduction): 2.7 µM

CC(=O)OC[C@H]1O[C@@H]([S-])[C@H](OC(C)=O)[C@@H](OC(C)=O)[C@@H]1OC(C)=O.CCP(CC)CC.[Au+] [auranofin, reference compound]
Effect of pre-treatment on sensitivity of HCT116 cells to chlorophyllin ([1]; auranofin 2.5 h pre-treatment, then chlorophyllin): increasing the sensitivity

CC1=C[C@H](O)CC(C)(C)[C@H]1/C=C/C(C)=C/C=C/C(C)=C/C=C/C=C(C)/C=C/C=C(C)/C=C/C1=C(C)C[C@@H](O)CC1(C)C [lutein]
Inhibition of NADPH oxidation activity of TrxR1 [4]: no inhibition
Time dependence of TrxR1 inhibition [5]: time-dependent manner
IC50 [6]: 306 µM

Sodium copper chlorophyll [chlorophyllin]
Inhibition of cellular TrxR1 activity [7]: remarkable inhibition
Fluorescent signals of ROS probe DCFH-DA [8]: much higher
IC50 ([9]; A549, 24 h): 40.7 ± 3.9 µM
IC50 ([9]; A549, 48 h): 10.3 ± 1.4 µM
IC50 ([10]; 24 h): 47.9 ± 13.5 µM
IC50 ([10]; 48 h): 10.4 ± 4.3 µM
IC50 ([11]; HepG2, 24 h): 36.8 ± 11.2 µM
IC50 ([11]; HepG2, 48 h): 10.2 ± 3 µM
IC50 ([12]; MCF7, 24 h): 30.1 ± 7.1 µM
IC50 ([12]; MCF7, 48 h): 6.9 ± 1.1 µM
IC50 ([1]; HCT116, 24 h): 43.5 ± 2.6 µM
IC50 ([1]; HCT116, 48 h): 20.2 ± 0.8 µM
IC50 ([2]; 48 h, read-out: IC50 values on cancer cell lines): 49.6 ± 24.7 µM
IC50 [13]: 31.7 ± 6.7 µM

hemin
Kinact in TrxR1 mediated Trx-coupled insulin reduction [3]: 4.33 M⁻¹ s⁻¹

Source: publication PMC8615155 (Antioxidants, 2021)
